In patent US8722683B2, “Benzodioxole piperazine compounds” (Hoffmann LA-Roche Inc., priority 2011, dated 2014):

How the values were obtained:
D2 receptor = D2 receptor (Homo sapiens (Human), UniProt P14416); experiment: Radioligand binding ([3H]-spiperone) to cloned D2 receptor expressed in HEK-293 EBNA cells; conditions: HEK293 EBNA membranes, 0.7 nM [3H]-spiperone
Method: (§1) HEK293 EBNA cells were transiently transfected with expression plasmids encoding for the human D2 or D3 or for the human 5-HT2A receptor, respectively. The cells were harvested 48 h post-transfection, washed three times with cold PBS and stored at −80° C. prior to use. The pellet was suspended in cold 50 mM Tris-HCl buffer containing 10 mM EDTA (pH 7.4) and was homogenized with a Polytron (Kinematica AG, Basel, Switzerland) for 20-30 sec at 12.000 rpm. After centrifugation at 48.000×g for 30 min at 4° C., the pellet was resuspended in cold 10 mM Tris-HCl buffer containing 0.1 mM EDTA (pH 7.4), homogenized, and centrifuged as above. This pellet was further resuspended in a smaller volume of ice cold 10 mM Tris-HCl buffer containing 0.1 mM EDTA (pH 7.4) and homogenized with a Polytron for 20-30 sec at 12.000 rpm. The protein content of this homogenate was determined with the Bio-Rad (Bradford) Protein Assay (Biorad Laboratories GmbH, München, Germany) according to the instructions of the manufacturer using gamma globulin as the standard. This homogenate was stored at −80° C. in aliquots and thawed immediately prior to use.
(§2) Radioligand Binding Assay
(§3) Aliquots of membrane preparations were thawed at RT, resupended in assay buffer (D2, D3: 50 mM Tris-HCl, 120 mM NaCl, 5 mM MgCl2, 1 mM EDTA, 5 mM KCl, 1.5 mM CaCl2, pH=7.4; 5-HT2A: 50 mM Tris-HCl, 10 mM MgCl2, 1 mM EGTA, pH=7.4), homogenized with a Polytron for 20-30 sec at 12.000 rpm and adjusted to a final concentration of approximately 7.5 μg protein/well (D2, D3) and 15 μg protein/well (5-HT2A), respectively.
The binding affinity (Ki) of the compounds was determined using radioligand binding. […] The nonspecific binding was determined with equally composed reaction mixtures in the presence of 10 μM unlabelled spiperone. Per well 45 μl of Microscint 40 (Perkin Elmer, Schwerzenbach, Switzerland) was added, plates for sealed, shaken for 20 min and counted for 3 min on a Topcount Microplate Scintillation Counter (Canberra Packard SA, Zürich, Switzerland) with quenching correction.
(§4) The CPM value for each duplicate of a concentration of competing compound was averaged (y1), then the % specific binding was calculated according to the equation (((y1−non-specific)/(total binding−non-specific))×100). Graphs were plotted with the % specific binding using XLfit, a curve fitting program that iteratively plots the data using Levenberg-Marquardt algorithm. The single site competition analysis equation used was y=A+((B−A)/(1+((x/C)D))), where y is the % specific binding, A is the minimum y, B is the maximum y, C is the IC50, x is the log 10 of the concentration of the competing compound and D is the slope of the curve (the Hill Coefficient). […] The affinity constant (Ki) was calculated using the Cheng-Prusoff equation Ki=(IC50/1+([L]/Kd), where [L] is the concentration of radioligand and Kd is the dissociation constant of the radioligand at the receptor as determined by the saturation isotherm.

D3 receptor = D3 receptor (Homo sapiens (Human), UniProt P35462); experiment: Radioligand binding ([3H]-spiperone) to cloned D3 receptor expressed in HEK-293 EBNA cells; conditions: HEK293 EBNA membranes, 0.5 nM [3H]-spiperone
Chain of D3 receptor (P35462 whole entry): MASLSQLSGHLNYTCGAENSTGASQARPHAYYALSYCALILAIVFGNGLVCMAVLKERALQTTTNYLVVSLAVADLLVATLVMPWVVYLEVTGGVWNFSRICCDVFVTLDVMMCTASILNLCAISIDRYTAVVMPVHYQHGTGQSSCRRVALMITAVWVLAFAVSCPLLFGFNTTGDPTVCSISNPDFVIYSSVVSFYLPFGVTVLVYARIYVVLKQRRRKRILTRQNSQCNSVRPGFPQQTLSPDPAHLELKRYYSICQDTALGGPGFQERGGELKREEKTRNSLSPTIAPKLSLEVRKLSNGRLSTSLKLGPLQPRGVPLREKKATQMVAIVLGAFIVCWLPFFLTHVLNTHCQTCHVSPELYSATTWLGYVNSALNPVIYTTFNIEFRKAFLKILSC
Method: as §1, §2, §3
The binding affinity (Ki) of the compounds was determined using radioligand binding. […] At the end of the incubation, the reaction mixtures were filtered on to unifilter 96-well white microplates with bonded GF/C filters (Packard BioScience, Zürich, Switzerland; preincubated for 1 h in 0.1% polyethylenimine (PEI) in assay buffer) with a Filtermate 196 harvester (Packard BioScience) and washed 3 times with cold assay buffer. The nonspecific binding was determined with equally composed reaction mixtures in the presence of 10 μM unlabelled spiperone. Per well 45 μl of Microscint 40 (Perkin Elmer, Schwerzenbach, Switzerland) was added, plates for sealed, shaken for 20 min and counted for 3 min on a Topcount Microplate Scintillation Counter (Canberra Packard SA, Zürich, Switzerland) with quenching correction.
as §4

Chain of D2 receptor (P14416 whole entry): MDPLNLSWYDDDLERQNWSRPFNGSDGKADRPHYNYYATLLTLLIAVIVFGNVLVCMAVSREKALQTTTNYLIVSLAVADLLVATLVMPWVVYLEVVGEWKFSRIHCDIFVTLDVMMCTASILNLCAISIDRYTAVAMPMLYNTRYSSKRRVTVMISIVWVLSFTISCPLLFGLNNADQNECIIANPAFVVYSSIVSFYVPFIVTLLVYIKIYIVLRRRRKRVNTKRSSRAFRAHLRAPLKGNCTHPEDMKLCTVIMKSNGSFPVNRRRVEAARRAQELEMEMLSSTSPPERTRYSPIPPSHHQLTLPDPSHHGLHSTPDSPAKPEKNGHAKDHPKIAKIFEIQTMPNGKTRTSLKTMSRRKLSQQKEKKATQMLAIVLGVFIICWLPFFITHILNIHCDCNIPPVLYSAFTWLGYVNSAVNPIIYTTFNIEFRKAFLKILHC

Compound: CCCC(=O)N[C@H]1CC[C@H](CCN2CCN(c3cccc4c3OCO4)CC2)CC1 [Example 19, Trans-N-{4-[2-(4-Benzo[1,3]dioxol-4-yl-piperazin-1-yl)-ethyl]-cyclohexyl}-butyramide]
- Ki (D2 receptor): 144 nM
- Ki (D3 receptor): 1.58 nM

Compound: CO[C@@H]1CC[C@@H](CC(=O)N[C@H]2CC[C@H](CCN3CCN(c4cccc5c4OCO5)CC3)CC2)C1 [Example 23, Trans-N-{4-[2-(4-Benzo[1,3]dioxol-4-yl-piperazin-1-yl)-ethyl]-cyclohexyl}-2-((1R,3R)-3-methoxy-cyclopentyl)-acetamide]
- Ki (D2 receptor): 183 nM
- Ki (D3 receptor): 2.5 nM

Compound: CC(C)(O)C(=O)N[C@H]1CC[C@H](CCN2CCN(c3cccc4c3OCO4)CC2)CC1 [Example 24, Trans-N-{4-[2-(4-Benzo[1,3]dioxol-4-yl-piperazin-1-yl)-ethyl]-cyclohexyl}-2-hydroxy-2-methyl-propionamide]
- Ki (D2 receptor): 181 nM
- Ki (D3 receptor): 8.8 nM

Compound: CC(C)(O)CC(=O)N[C@H]1CC[C@H](CCN2CCN(c3cccc4c3OCO4)CC2)CC1 [Example 27, Trans-N-{4-[2-(4-Benzo[1,3]dioxol-4-yl-piperazin-1-yl)-ethyl]-cyclohexyl}-3-hydroxy-3-methyl-butyramide]
- Ki (D2 receptor): 76.8 nM
- Ki (D3 receptor): 1.56 nM

Compound: O=C(CC1(O)CCC1)N[C@H]1CC[C@H](CCN2CCN(c3cccc4c3OCO4)CC2)CC1 [Example 28, Trans-N-{4-[2-(4-Benzo[1,3]dioxol-4-yl-piperazin-1-yl)-ethyl]-cyclohexyl}-2-(1-hydroxy-cyclobutyl)-acetamide]
- Ki (D2 receptor): 94.6 nM
- Ki (D3 receptor): 1.4 nM

Compound: O=C(N[C@H]1CC[C@H](CCN2CCN(c3cccc4c3OCO4)CC2)CC1)C1(O)CC1 [Example 29, Trans-1-Hydroxy-cyclopropanecarboxylic acid {4-[2-(4-benzo[1,3]dioxol-4-yl-piperazin-1-yl)-ethyl]-cyclohexyl}-amide]
- Ki (D2 receptor): 61.5 nM
- Ki (D3 receptor): 1.88 nM

Compound: CS(=O)(=O)N[C@H]1CC[C@H](CCN2CCN(c3cccc4c3OCO4)CC2)CC1 [Example 34, Trans-N-{4-[2-(4-Benzo[1,3]dioxol-4-yl-piperazin-1-yl)-ethyl]-cyclohexyl}-methanesulfonamide]
- Ki (D2 receptor): 145 nM
- Ki (D3 receptor): 3.1 nM

Compound: O=C(N[C@H]1CC[C@H](CCN2CCN(c3cccc4c3OCO4)CC2)CC1)C1(O)CCCC1 [Example 36, 1-Hydroxy-cyclopentanecarboxylic acid-trans-N-{4-[2-(4-benzo[1,3]dioxol-4-yl-piperazin-1-yl)-ethyl]-cyclohexyl}-amide]
- Ki (D2 receptor): 124 nM
- Ki (D3 receptor): 11 nM

Compound: O=C(N[C@H]1CC[C@H](CCN2CCN(c3cccc4c3OCO4)CC2)CC1)C1(O)CCCCC1 [Example 37, 1-Hydroxy-cyclohexanecarboxylic acid-trans-N-{4-[2-(4-benzo[1,3]dioxol-4-yl-piperazin-1-yl)-ethyl]-cyclohexyl}-amide]
- Ki (D2 receptor): 175 nM
- Ki (D3 receptor): 15.7 nM

Compound: COC1(C(=O)N[C@H]2CC[C@H](CCN3CCN(c4cccc5c4OCO5)CC3)CC2)CCCCC1 [Example 41, 1-Methoxy-cyclohexanecarboxylic acid-Trans-N-{4-[2-(4-benzo[1,3]dioxol-4-yl-piperazin-1-yl)-ethyl]-cyclohexyl}-amide]
- Ki (D2 receptor): 251 nM
- Ki (D3 receptor): 12.5 nM

Compound: C[C@@H](O)C(=O)N[C@H]1CC[C@H](CCN2CCN(c3cccc4c3OCO4)CC2)CC1 [Example 42, (R)-Trans-N-{4-[2-(4-Benzo[1,3]dioxol-4-yl-piperazin-1-yl)-ethyl]-cyclohexyl}-2-hydroxy-propionamide]
- Ki (D2 receptor): 89.8 nM
- Ki (D3 receptor): 2.17 nM

Compound: O=C(N[C@H]1CC[C@H](CCN2CCN(c3cccc4c3OCO4)CC2)CC1)c1ccc(F)cc1 [Example 46, Trans-N-{4-[2-(4-Benzo[1,3]dioxol-4-yl-piperazin-1-yl)-ethyl]-cyclohexyl}-4-fluoro-benzamide]
- Ki (D2 receptor): 82.5 nM
- Ki (D3 receptor): 3.79 nM

Compound: O=C(N[C@H]1CC[C@H](CCN2CCN(c3cccc4c3OCO4)CC2)CC1)c1ccnc2ccccc12 [Example 47, Quinoline-4-carboxylic acid-trans-N-{4-[2-(4-benzo[1,3]dioxol-4-yl-piperazin-1-yl)-ethyl]-cyclohexyl}-amide]
- Ki (D2 receptor): 509 nM
- Ki (D3 receptor): 2.4 nM

Compound: O=C(N[C@H]1CC[C@H](CCN2CCN(c3cccc4c3OCO4)CC2)CC1)c1cccnc1 [Example 48, Trans-N-{4-[2-(4-Benzo[1,3]dioxol-4-yl-piperazin-1-yl)-ethyl]-cyclohexyl}-nicotinamide]
- Ki (D2 receptor): 88.2 nM
- Ki (D3 receptor): 1.79 nM

Compound: O=C(N[C@H]1CC[C@H](CCN2CCN(c3cccc4c3OCO4)CC2)CC1)C1COc2ccccc2C1 (stereo partly drawn) [Example 50, Chroman-3-carboxylic acid-trans-N-{4-[2-(4-benzo[1,3]dioxol-4-yl-piperazin-1-yl)-ethyl]-cyclohexyl}-amide]
- Ki (D2 receptor): 572 nM
- Ki (D3 receptor): 0.87 nM

Compound: O=C(Cc1ccc2c(c1)OCO2)N[C@H]1CC[C@H](CCN2CCN(c3cccc4c3OCO4)CC2)CC1 [Example 51, 2-Benzo[1,3]dioxol-5-yl-trans-N-{4-[2-(4-benzo[1,3]dioxol-4-yl-piperazin-1-yl)-ethyl]-cyclohexyl}-acetamide]
- Ki (D2 receptor): 681 nM
- Ki (D3 receptor): 2.11 nM

Compound: O=C(CC1CCOCC1)N[C@H]1CC[C@H](CCN2CCN(c3cccc4c3OCO4)CC2)CC1 [Example 53, N-trans-{4-[2-(4-Benzo[1,3]dioxol-4-yl-piperazin-1-yl)-ethyl]-cyclohexyl}-2-(tetrahydro-pyran-4-yl)-acetamide]
- Ki (D2 receptor): 139 nM
- Ki (D3 receptor): 2.09 nM

Compound: O=C(N[C@H]1CC[C@H](CCN2CCN(c3cccc4c3OCO4)CC2)CC1)C1CCC1 [Example 54, Cyclobutanecarboxylic acid-trans-N-{4-[2-(4-benzo[1,3]dioxol-4-yl-piperazin-1-yl)-ethyl]-cyclohexyl}-amide]
- Ki (D2 receptor): 91.1 nM
- Ki (D3 receptor): 1.97 nM

Compound: CS(=O)(=O)CC(=O)N[C@H]1CC[C@H](CCN2CCN(c3cccc4c3OCO4)CC2)CC1 [Example 55, Trans-N-{4-[2-(4-Benzo[1,3]dioxol-4-yl-piperazin-1-yl)-ethyl]-cyclohexyl}-2-methanesulfonyl-acetamide]
- Ki (D2 receptor): 95.4 nM
- Ki (D3 receptor): 1.45 nM

Compound: N#Cc1ccc(C(=O)N[C@H]2CC[C@H](CCN3CCN(c4cccc5c4OCO5)CC3)CC2)cc1 [Example 59, Trans-N-{4-[2-(4-Benzo[1,3]dioxol-4-yl-piperazin-1-yl)-ethyl]-cyclohexyl}-4-cyano-benzamide]
- Ki (D2 receptor): 101 nM
- Ki (D3 receptor): 3.55 nM

Compound: O=C(N[C@H]1CC[C@H](CCN2CCN(c3cccc4c3OCO4)CC2)CC1)C1CC(Cl)C1 (stereo partly drawn) [Example 60, 3-Chloro-cyclobutanecarboxylic acid-trans-N-{4-[2-(4-benzo[1,3]dioxol-4-yl-piperazin-1-yl)-ethyl]-cyclohexyl}-amide]
- Ki (D2 receptor): 81.1 nM
- Ki (D3 receptor): 2.98 nM

Compound: COC(C)(C)C(=O)N[C@H]1CC[C@H](CCN2CCN(c3cccc4c3OCO4)CC2)CC1 [Example 63, Trans-N-{4-[2-(4-Benzo[1,3]dioxol-4-yl-piperazin-1-yl)-ethyl]-cyclohexyl}-2-methoxy-2-methyl-propionamide]
- Ki (D2 receptor): 117 nM
- Ki (D3 receptor): 27.4 nM

Compound: CO[C@@H](C(=O)N[C@H]1CC[C@H](CCN2CCN(c3cccc4c3OCO4)CC2)CC1)C(C)C [Example 64, (R)-trans-N-{4-[2-(4-Benzo[1,3]dioxol-4-yl-piperazin-1-yl)-ethyl]-cyclohexyl}-2-methoxy-3-methyl-butyramide]
- Ki (D2 receptor): 89.5 nM
- Ki (D3 receptor): 14.7 nM
